Results published in the NIST ThermoML archive (doi:10.1016/j.fluid.2011.08.011).
“And” between values parts separate entries of the source, which are not always exact repeats. Equal values may be shown once. Numbers after ± are expanded uncertainties.

Key:
[1] = Solid-liquid equilibrium temperature; settings: 101.3 kPa; Crystal; DTA
[2] = Molar enthalpy of transition or fusion; settings: Crystal; DSC
[3] = molar heat capacity at constant pressure; settings: 101.33 kPa, Liquid, Small sample (50 mg) DSC
[4] = Liquid, Closed cell (Static) method

CC(C)(C)[O-].CC(C)(C)[O-].CC(C)(C)[O-].CC(C)(C)[O-].[Hf+4] [hafnium(IV) 2-methylpropan-2-olate]
Settings | Molar enthalpy of transition or fusion [kcal/mol] | Solid-liquid equilibrium temperature
[1] | – | 271.9 ± 0.4 K and 271.8 ± 0.4 K and 271.7 ± 0.4 K
[2] | 7.72 ± 0.645 | –

Settings | molar heat capacity at constant pressure | vapor or sublimation pressure
[3], 293.83 K | 596.3 ± 15 J/K/mol and 598.5 ± 15 J/K/mol | –
[3], 298.94 K | 598.9 ± 15 J/K/mol and 598.2 ± 15 J/K/mol | –
[3], 304.04 K | 601.3 ± 15 J/K/mol and 601.8 ± 15 J/K/mol | –
[3], 309.15 K | 604.8 ± 15 J/K/mol and 600.7 ± 15 J/K/mol | –
[3], 314.25 K | 604.8 ± 15 J/K/mol and 602.9 ± 15 J/K/mol | –
[3], 319.35 K | 612.6 ± 15 J/K/mol and 614.6 ± 15 J/K/mol | –
[3], 324.46 K | 614.2 ± 15 J/K/mol and 613.8 ± 15 J/K/mol | –
[3], 329.56 K | 616.6 ± 15 J/K/mol and 621.7 ± 15 J/K/mol | –
[3], 334.66 K | 626.3 ± 15 J/K/mol and 625.9 ± 15 J/K/mol | –
[3], 339.77 K | 631.5 ± 16 J/K/mol and 628.5 ± 15 J/K/mol | –
[3], 344.88 K | 635.3 ± 16 J/K/mol and 638.1 ± 16 J/K/mol | –
[3], 349.98 K | 635.5 ± 16 J/K/mol and 635.9 ± 16 J/K/mol | –
[4], 280.65 K | – | 0.00169 ± 0.00012 kPa and 0.00172 ± 0.00012 kPa and 0.00174 ± 0.00012 kPa
[4], 283.15 K | – | 0.00214 ± 0.00013 kPa and 0.00217 ± 0.00013 kPa and 0.00219 ± 0.00013 kPa
[4], 285.65 K | – | 0.00279 ± 0.00015 kPa and 0.00282 ± 0.00015 kPa and 0.00284 ± 0.00015 kPa
[4], 288.15 K | – | 0.00362 ± 0.00017 kPa and 0.00364 ± 0.00017 kPa and 0.00361 ± 0.00017 kPa
[4], 290.65 K | – | 0.00443 ± 0.0002 kPa and 0.00442 ± 0.0002 kPa and 0.00444 ± 0.0002 kPa
[4], 293.15 K | – | 0.00563 ± 0.00024 kPa and 0.00565 ± 0.00024 kPa and 0.00564 ± 0.00024 kPa
[4], 295.65 K | – | 0.00722 ± 0.0003 kPa and 0.0072 ± 0.0003 kPa
[4], 298.15 K | – | 0.00874 ± 0.00036 kPa and 0.00873 ± 0.00036 kPa
[4], 300.65 K | – | 0.01111 ± 0.00045 kPa and 0.01107 ± 0.00045 kPa and 0.01104 ± 0.00044 kPa
[4], 303.15 K | – | 0.01348 ± 0.00052 kPa and 0.01346 ± 0.00052 kPa
[4], 305.67 K | – | 0.01669 ± 0.00057 kPa and 0.01664 ± 0.00057 kPa and 0.0166 ± 0.00057 kPa
[4], 308.17 K | – | 0.02071 ± 0.00063 kPa and 0.02061 ± 0.00063 kPa and 0.02059 ± 0.00063 kPa
